From article PMC10376843, “Discovery of Novel Myristic Acid Derivatives as N-Myristoyltransferase Inhibitors: Design, Synthesis, Analysis, Computational Studies and Antifungal Activity” (Antibiotics, 2023)
Converted amounts (≈) assume the structure as drawn. Like-named read-outs stand apart in the source and are kept apart here.

Experiments:
[1] = molecular target: N-Myristoyltransferase (NMT); assay: in vitro biochemical NMT inhibition assay (fluorescence detection of CoA); settings: 0.1 nM to 10,000 nM; excitation 380 nm, emission 470 nm
Protocol: The potency of the myristic acid derivatives was determined via an in vitro NMT assay. Coenzyme A (CoA) was detected as a byproduct of an enzymatic reaction. Fluorescence was measured at an excitation wavelength of 380 nm and an emission wavelength of 470 nm. In this assay, the intensity of fluorescence was […], giving a signal (Figure 7).
The NMT protein used in the study was from the supplier Ray Biotech. The assay was performed in 96-well black PP microplates with the myristic acid derivatives in concentrations ranging from 0.1 nM to 10,000 nM. The solutions were prepared in a buffer containing 20 mM of potassium phosphate (pH 7.9–8.0) and 0.5 mM of ethylenediaminetetraacetic acid (EDTA), 0.1% (v/v) Triton X-100, and a final concentration of 2.7% (v/v) dimethyl sulfoxide (DMSO). Fluorescence was measured at an excitation wavelength of 380 nm and an emission wavelength of 470 nm. These readings were obtained on an EnSight Multimode Microplate Reader, and we plotted the response vs. concentration (log nM), ranging from 0.1 nM to 10,000 nM, to obtain the IC50 values using Graph Pad Prism, according to the reported standard procedure.

[2] = test system: Aspergillus niger (ATCC 16888); assay: antifungal micro-broth dilution assay, A. niger; format: cell-based; settings: read-out: MIC50 A. niger
Protocol: (§1) A microbroth dilution method was used to test the synthesized compounds. In vitro tests for antifungal activity against Candida albicans (C. albicans) and Aspergillus niger (A. niger) were carried out in triplicate at concentrations ranging from 100 μg/mL to 6.25 μg/mL. The percentage cytotoxicity and MIC50 value for each compound were calculated from the observed absorbance measured at 590 nm, and the results are shown in Table 5. Fluconazole was used as a reference drug, and the antifungal activities were expressed as minimum inhibitory concentration (MIC50) values in μg/mL.
(§2) From HIMEDIA M210 Mumbai, India, test fungal strains were acquired. The conventional micro-broth dilution method was used to test the in vitro antifungal activity of the synthesized compounds against the fungi Candida albicans (ATCC 10231) and Aspergillus niger (ATCC 16888) from the American Type Culture Collection. The acquired fungal strains were used in the current experiment after being subcultured in SDB (Sabouraud dextrose broth). The 48 h young cultures were created and kept at 26 °C before the experiment.
(§3) According to the CLSI’s standard M27 recommended methodology, the SDB was treated with the compounds, which were dissolved in DMSO via the serial dilution method in sterile circumstances to achieve the necessary concentration levels. All the cultures that had been exposed to the compounds were serially diluted twice in growth media, inoculated to about 1 × 10^5 CFU/mL and incubated at 26 °C for 48 h. Subsequently, using a UV spectrophotometer, the absorbance at 590 nm of each culture was determined. The formula was used to compute the viability percentage.
(§4) Percentage viability = ([…]) × 100
(§5) The percentage inhibition was calculated using the formula (100 - cell viability) and plotted in the graph to determine the MIC50 value for each compound (Figure 8) and (Figure 9).
(§6) GraphPad Prism 8.0.2 software (San Diego, CA, USA) was used for statistical analysis. The MIC50 value was established via a nonlinear regression analysis.

[3] = test system: Candida albicans (ATCC 10231); assay: antifungal micro-broth dilution assay, C. albicans; format: cell-based; settings: ATCC10231, 48 h
Protocol: as §1, §2, §3, §4, §5, §6

[4] = ATCC16888, ATCC 16888, 48 h, 26 °C, 100 to 6.25 μg/mL, absorbance 590 nm
[5] = ATCC 10231, 26 °C, 100 to 6.25 μg/mL, absorbance 590 nm, read-out: MIC50 C. albicans

| Structure (SMILES) | IC50 [1] | IC50 [2, 4] | IC50 [3, 5] | IC50 ([2]; ATCC16888, 48 h) | IC50 ([3]; read-out: MIC50 C. albicans, ATCC 10231, 26 °C, 100 to 6.25 μg/mL, absorbance 590 nm) |
| --- | --- | --- | --- | --- | --- |
| CCCCCCCCCCCCCC(=O)Nc1ccccc1 [Compound 3p, N-phenyltetradecanamide] | > 1500 nM | 24.8 µg/mL (≈ 81.6 µM) | 15 to 22 µg/mL (≈ 49.4 to 72.5 µM) | – | – |
| CCCCCCCCCCCCCC(=O)Nc1ccc(O)cc1 [Compound 3t, N-(4-hydroxyphenyl) tetradecanamide] | 1000 nM | 17.4 µg/mL (≈ 54.5 µM) | 12.9 µg/mL (≈ 40.5 µM) | – | – |
| CCCCCCCCCCCCCC(=O)NC1CCCCC1 [Compound 3m, N-cyclohexyltetradecanamide] | 863 nM | – | – | 14.7 µg/mL (≈ 47.4 µM) | 15 to 22 µg/mL (≈ 48.5 to 71.1 µM) |
| CCCCCCCCCCCCCC(=O)Nc1ccc(OCC)cc1 [Compound 3l, N-(4-ethoxyphenyl) tetradecanamide] | > 1500 nM | 75.9 µg/mL (≈ 218 µM) | 15 to 22 µg/mL (≈ 43.2 to 63.3 µM) | – | – |
| CCCCCCCCCCCCCC(=O)Nc1ccc(F)cc1 [Compound 3r, N-(4-fluorophenyl) tetradecanamide] | 1460 nM | 15.4 µg/mL (≈ 48 µM) | 11.9 µg/mL (≈ 37 µM) | – | – |
| CCCCCCCCCCCCCC(=O)N(C)c1ccccc1 [Compound 3o, N-methyl-N-phenyltetradecanamide] | > 1500 nM | 94.2 µg/mL (≈ 297 µM) | 15 to 22 µg/mL (≈ 47.2 to 69.3 µM) | – | – |
| CCCCCCCCCCCCCC(=O)O [Myristic acid] | 4210 nM | – | – | – | – |
| CCCCCCCCCCCCCC(=O)Nc1ccc(C(F)(F)F)cc1 [Compound 3s, N-(4-(trifluoromethyl)phenyl)tetradecanamide] | > 1500 nM | 34.3 µg/mL (≈ 92.3 µM) | 38.8 µg/mL (≈ 104 µM) | – | – |
| OC(Cn1cncn1)(Cn1cncn1)c1ccc(F)cc1F [FLZ, Fluconazole, reference compound] | – | 16.3 µg/mL (≈ 53.2 µM) | 17.8 µg/mL (≈ 58 µM) | – | – |

Now from value to compound, other results behind:

| IC50 [1] | IC50 [2, 4] | IC50 [3, 5] | Structure (SMILES) | IC50 ([2]; ATCC16888, 48 h) | IC50 ([3]; read-out: MIC50 C. albicans, ATCC 10231, 26 °C, 100 to 6.25 μg/mL, absorbance 590 nm) |
| --- | --- | --- | --- | --- | --- |
| 1290 nM | 59.6 µg/mL (≈ 188 µM) | 10.8 µg/mL (≈ 33.9 µM) | CCCCCCCCCCCCCC(=O)Nc1cccc(C)c1 [Compound 3k, N-(m-tolyl) tetradecanamide] | – | – |
| > 1500 nM | 31.4 µg/mL (≈ 106 µM) | 27.6 µg/mL (≈ 92.8 µM) | CCCCCCCCCCCCCC(=O)N1CCOCC1 [Compound 3n, 1-morpholinotetradeca-1-one] | – | – |
| > 1500 nM | 22.1 µg/mL (≈ 68.3 µM) | 32.4 µg/mL (≈ 99.8 µM) | CCCCCCCCCCCCCC(=O)Nc1nc(C)cs1 [Compound 3v, N-(4-methylthiazol-2-yl) tetradecanamide] | – | – |
| > 1500 nM | 28.5 µg/mL (≈ 86.1 µM) | 28.4 µg/mL (≈ 85.7 µM) | CCCCCCCCCCCCCC(=O)N(CC)c1ccccc1 [Compound 3q, N-ethyl-N-phenyltetradecanamide] | – | – |
| 835 nM | 14.4 µg/mL (≈ 47.2 µM) | 10.6 µg/mL (≈ 34.9 µM) | CCCCCCCCCCCCCC(=O)Nc1ccccn1 [Compound 3u, N-(pyridine-2-yl) tetradecanamide] | – | – |
